# In publication PMC8955938, “c-Myc Protein Level Affected by Unsymmetrical Bisacridines Influences Apoptosis and Senescence Induced in HCT116 Colorectal and H460 Lung Cancer Cells” (International Journal of Molecular Sciences, 2022):
# Several values for one entry are separate records, joined by “and”; a condition that tells them apart may be missing. Equal values may be shown once.
# Columns and labels:
# Assay type in all cases: cell-based, human
# [1] = system: H460 cells; assay: Colony-forming assay, H460; details: for number of colonies: H460, 120 h treatment at IC90 doses, about 250 cells cultured two weeks in fresh medium; for return to proliferation (colony formation): H460, IC90 doses, already after 24 h of incubation
# Description: (§1) The ability of cells to return to proliferation after UAs treatment was measured by a colony-forming assay. After drug treatment, 250 HCT116 and H460 cells were harvested and seeded in a new 6-well plate containing fresh medium without the drug and incubated for two weeks. Untreated cells were used as controls. After two weeks, colonies were fixed with 80% ethanol, stained with crystal violet, counted, and photos were taken.
# [2] = system: H460 cells; assay: Annexin V/PI dual staining, H460; details: H460, IC90 doses; for necrotic cells (stained only with PI): during the incubation time
# Description: (§2) Annexin V–FITC binding was performed with an Annexin-V Fluos Staining kit (BD Biosciences, San Jose, CA, USA) according to manufacturer’s protocol. Briefly, after drug treatment, HCT116 and H460 cells (1 × 10^6) were trypsinized, washed twice with ice-cold PBS, pelleted and resuspended in 100 µL of binding buffer containing Annexin-V–FITC and PI. Cells were incubated for 15 min at room temperature in the dark, then diluted with 400 µL of binding buffer and analyzed by flow cytometry with FACS Accuri C6 (BD, San Jose, CA, USA). Cells with low FITC and PI fluorescence were considered viable. Cells that presented high FITC fluorescence but low PI fluorescence were regarded as early apoptotic. Late apoptotic cells presented high FITC and PI fluorescence. Necrotic cells had low FITC fluorescence and high PI fluorescence.
# [3] = system: H460 cells; assay: Mitochondrial transmembrane potential (JC-1), H460; details: H460, IC90 doses, 120 h
# Description: (§3) Changes in the mitochondrial membrane potential (ΔΨm) were analyzed by flow cytometry using 5,5′,6,6′-tetrachloro-1,1′,3,3′-tetraethylbenzimidazolyl-carbocyanine iodide, JC-1 (BD Biosciences, San Jose, CA, USA) according to manufacturer’s specification. Briefly, after treatment, HCT116 and H460 cells (1 × 10^6) were trypsinized, pelleted, resuspended in media and stained with JC-1 for 15 min at 37 °C. After staining, cells were washed twice with assay buffer and analyzed by flow cytometry with FACS Accuri C6 (BD, San Jose, CA, USA). The loss of ΔΨm was monitored based on the decrease in JC-1 red fluorescence concurrent with the increase in green fluorescence.
# [4] = system: MRC-5 cells; assay: MTT cell growth inhibition assay, MRC-5; details: for IC50: MRC-5 normal cells; for IC90: MRC5, MRC-5 normal cells
# Description: (§4) To assess cell viability, the MTT assay was used. HCT116, H460, CCD 841 CoN and MRC-5 cells (20,000/well and 50,000/well for cancer and normal cells, respectively) were seeded in 24-well plates, and the following UAs were added at concentrations up to 10 μM: C-2028, C-2041, C-2045 and C-2053. Stock solutions (10 mM) were prepared in sterile water, as well as dilutions, also in water. After 72 h, 3-(4, 5-dimethylthiazol-2-yl)-2,5-diphenyltetrazolium bromide (MTT; 800 μg/well) was added for 3 h, then the formazan crystals were dissolved in DMSO, and absorbance was read at 540 nm. Each point was conducted at least 4 times, and data are expressed relative to controls. The concentration of the drug required to inhibit cells growth by 50 (IC50), 80 (IC80) and 90% (IC90) compared to untreated control cells was determined from the curves plotting survival as a function of dose.
# [5] = system: H460 cells; assay: MTT cell growth inhibition assay, H460
# Description: as §4
# [6] = system: cleaved PARP in H460 cells; assay: PARP cleavage flow cytometry, H460; details: H460, IC90 doses
# Description: PARP cleavage was determined using Alexa Fluor 647-conjugated anti-cleaved PARP antibody (BD Biosciences, San Diego, CA, USA) according to the manufacturer’s instructions. Briefly, HCT116 and H460 cells (1 × 10^6) were trypsinized, pelleted, washed twice with ice-cold PBS and fixed in Fixation Buffer for 20 min on ice. After fixation, cells were rinsed twice with Perm Wash Buffer, stained with Alexa Fluor 647-conjugated anti-cleaved PARP antibody for 30 min, rinsed with Perm Wash Buffer and analyzed by flow cytometry with FACS Accuri C6 (BD, San Jose, CA, USA).
# [7] = system: HCT116 cells; assay: MTT cell growth inhibition assay, HCT116; details: HCT116, 72 h
# Description: as §4
# [8] = system: H460 cells; assay: Nuclear morphology (Hoechst 33342), H460; details: H460, IC90 doses, 72 and 120 h similar level (time not specified)
# Description: (§5) Nuclear morphology was examined under a fluorescence microscope (OLYMPUS BX60, […]) after staining with Hoechst 33342. Briefly, after drug treatment, HCT116, H460, CCD 841 CoN and MRC-5 cells were spun onto microscopic slides, fixed with methanol:acetic acid (3:1) for 15 min and stained with Hoechst 33342 (1 mg/mL) for 15 min. Cells were regarded as apoptotic based on the presence of condensed, fragmented chromatin. Enlarged cells containing multiple nuclei were considered as typical of mitotic catastrophe.
# [9] = system: CCD 841 CoN cells; assay: MTT cell growth inhibition assay, CCD 841 CoN; details: CCD 841 CoN normal cells, 72 h
# Description: as §4
# [10] = system: HCT116 cells; assay: Colony-forming assay, HCT116; details: for number of colonies: HCT116, 120 h treatment at IC90 doses, about 250 cells cultured two weeks in fresh medium; for return to proliferation (colony formation): HCT116, IC90 doses, already after 24 h of incubation
# Description: as §1
# [11] = system: HCT116 cells; assay: Mitochondrial transmembrane potential (JC-1), HCT116; details: HCT116, IC90 doses, 120 h
# Description: as §3
# [12] = system: HCT116 cells; assay: Annexin V/PI dual staining, HCT116; details: HCT116, IC90 doses, 120 h
# Description: as §2
# [13] = system: HCT116 cells; assay: Nuclear morphology (Hoechst 33342), HCT116; details: HCT116, IC90 doses
# Description: as §5
Compound,number of colonies [1],annexin V positive cells (early and late apoptotic) ([2]; 120 h) [%],necrotic cells (stained only with PI) [2] [%],cells with decreased mitochondrial transmembrane potential (ΔΨm) [3] [%],"IC50 ([4]; Homo sapiens, MRC5, 72 h) [nM]","IC90 ([4]; Homo sapiens, 72 h) [nM]","IC50 ([5]; H460, 72 h) [nM]","IC90 ([5]; H460, 72 h) [nM]","IC50 ([5]; Homo sapiens, NCI-H460, 72 h) [nM]","IC90 ([5]; Homo sapiens, NCI-H460, 72 h) [nM]",cells with cleaved PARP ([6]; 120 h),IC50 [7] [nM],IC90 [7] [nM],"IC50 ([7]; Homo sapiens, HCT-116, 72 h) [nM]","IC90 ([7]; Homo sapiens, HCT-116, 72 h) [nM]",apoptotic cells (nuclear morphology) [8] [%],IC90 ([9]; Homo sapiens) [nM],"IC50 ([9]; Homo sapiens, CCD-841CoN) [nM]",cells with decreased mitochondrial transmembrane potential (ΔΨm) [11],annexin V positive cells (early and late apoptotic) [12],other results
CN(CCCNc1c2ccccc2nc2cccc([N+](=O)[O-])c12)CCCNc1ccc2ncn3c4ccccc4c(=O)c1c23 [Compound C-2028],eight,48.7,≤ 10,44.3,~20,2690 ± 640,16 ± 2,46 ± 4,≤ 16,≤ 50,about 20%,10 ± 1,44 ± 5,≤ 16,≤ 50,24.8,3690 ± 1080,~20,34.3% and 30%,26.1%,IC50 [9]: 25 ± 7 nM; number of colonies [10]: one
O=c1c2ccccc2n2cnc3ccc(NCCCN4CCN(CCCNc5c6ccccc6nc6cccc([N+](=O)[O-])c56)CC4)c1c32 [Compound C-2041],77 colonies,35.9,≤ 10,46.8,23 ± 4,6160 ± 2060,15 ± 2,46 ± 5,≤ 16,≤ 50,about 20%,8 ± 2,49 ± 5,≤ 16,≤ 50,–,5120 ± 1090,36 ± 5,around 70%,approximately 43%,apoptotic cells (nuclear morphology) ([13]; 72 h): 29.4%; number of colonies [10]: 7 colonies; cells with decreased mitochondrial transmembrane potential (ΔΨm) ([11]; listed as C-1041): 63.0%
Cc1ccc([N+](=O)[O-])c2c(NCCCN(C)CCCNc3ccc4ncn5c6ccc(O)cc6c(=O)c3c45)c3ccccc3nc12 [Compound C-2045],–,49.4,–,62.5,~300,6130 ± 2350,–,–,95 ± 38,399 ± 52,28.2%,–,–,59 ± 8,455 ± 26,41.8,5340 ± 1850,~300,30.9% and 30%,~27.8%,return to proliferation (colony formation) [1]: completely blocked their return to proliferation; apoptotic cells (nuclear morphology) ([13]; 72 h): 20.6%; necrotic cells (A−PI+) ([2]; 120 h): ~12%; IC50 ([4]; 72 h): 218 ± 37 nM; cells with cleaved PARP ([6]; 72 h): 53.9%; IC50 [9]: 338 ± 27 nM; return to proliferation (colony formation) [10]: completely blocked their return to proliferation
Cc1ccc([N+](=O)[O-])c2c(NCCCN(C)CCCNc3ccc4ncn5c6ccccc6c(=O)c3c45)c3ccccc3nc12 [Compound C-2053],–,53.1,≤ 10,67.8,120 ± 26,3800 ± 1340,–,–,25 ± 6,184 ± 22,43.3%,–,–,48 ± 14,195 ± 75,41.6,4100 ± 470,240 ± 40,23.5%,18.4%,return to proliferation (colony formation) [1]: completely blocked their return to proliferation; apoptotic cells (nuclear morphology) ([13]; 72 and 120 h): up to 6.4%; cells with cleaved PARP ([6]; 72 h): 47.8%; return to proliferation (colony formation) [10]: completely blocked their return to proliferation
